{"source": "PubChem BioAssay AID1963847", "about": "(Molecular Pharmacology Branch, DTP, NCI, 2024)", "tested_on": "415267-285-R-J2-PDC complex spheroid viability", "assay": "Anticancer human tumor 415267-285-R-J2-PDC patient-derived breast carcinoma cell line growth inhibition [POLQ]", "conditions": "for viability, T/C: stronger effect = lower value", "method": "Multicellular complex tumor spheroid response to Polymerase (POL) inhibitors (novobiocin, ART-558, RP6685) in combination with a variety of drugs and investigational agents in selected tumor cell lines\nThe POL inhibitors (novobiocin, ART-558, and RP6685) were evaluated both individually and in combination with standard of care and investigational anticancer small molecules within a complex spheroid model of solid tumors. . Complex spheroids include a stromal component modeled by human endothelial cells (HUVEC) and fibroblasts modeled by human mesenchymal stem cells (MSCs). The concentration ranges selected for each drug and investigational agent were based upon clinically achievable concentrations if the clinical Cmax of the agent was known.\nCompounds. The drugs and investigational agents: novobiocin (NSC847541), ART-558 (NSC835418), RP-6685 (NSC848927), peposertib (NSC802822), ceralasertib (NSC780249), elimusertib (NSC800525), camonsertib (NSC841442), AZD-1390 (NSC803789), olaparib (NSC753686), talazoparib (NSC767125), rucaparib (NSC756644), sotorasib (NSC818433), MRTX-1133 (NSC836407), SN-38 (NSC673596), topotecan (NSC609699), epotoside (NSC141540), doxorubicin (NSC123127), gemcitabine (NSC613327), 5-fluorouracil (NSC19893), paclitaxel (NSC125973), vemurafenib (NSC761431), MSA-2 (NSC828583), SN-011 (NSC837082), adavosertib (NSC754352), prexasertib (NSC758257), carboplatin (NSC241240) and oxaliplatin (NSC266046), were obtained from the National Cancer Institute (NCI) Developmental Therapeutics Program Chemical Repository (21). The FDA-approved anticancer drug set is available from the Developmental Therapeutics Program at https://dtp.cancer.gov/organization/dscb/obtaining/. […] The stock solutions were prepared in dimethyl sulfoxide (DMSO, Sigma-Aldrich, St. Louis, MO, cat. D2650), except for the platinum compounds which were prepared in saline (Quality Biological, Gaithersburg, MD, cat. 114-055-101), at 800-fold the tested concentration and stored at -70 degrees C prior to their use. All drugs and investigational agents were tested over a range starting from a high concentration at or near the clinical Cmax and decreasing in half-log increments. If the clinical Cmax for an agent had not been determined, the highest concentration tested was 10 microM, except for SN-38, which was tested at a high concentration of 1 microM.\nCell Culture. All cells were maintained in an incubator at 37 degrees C and 5% CO2 with 95% humidity. The PDC lines were cultured according to standard operating procedures established by the NCI PDMR (https://pdmr.cancer.gov). Table 3 of the manuscript, lists the cell lines along with the number of the three cell types plated to form the mct-spheroids and media for tumor cell growth. After thawing, all PDC lines, except 997537-175-T-J1-PDC and 415267-285-R-J2-PDC, were cultured in Matrigel-coated flasks prepared with a working solution of 1X Ham's F-12 nutrient mix, without supplementation (Thermo Fisher Scientific, cat. 11765054), 100 U/mL penicillin-streptomycin (Thermo Fisher Scientific, cat. 15140122), and 2.5% Matrigel (Corning Inc., Corning, NY, cat. 354248) for the first three passages. The two PDC lines 997537-175-T-J1-PDC and 415267-285-R-J2-PDC were cultured on uncoated flasks. The 857933-349-R-J2-PDC line was cultured in 6C/Colon 1B media containing advanced DMEM/F-12 (Thermo Fisher Scientific, cat. 12634028), 10 mM HEPES (Thermo Fisher Scientific, cat. 15630080), 1X GlutaMAX supplement (Thermo Fisher Scientific, cat. 35050061), 0.1 mg/mL primocin (InvivoGen, San Diego, CA, cat. ant-pm-2), 10% defined fetal bovine serum, heat inactivated (HyClone Laboratories Inc., Logan, UT, cat. SH30070.03HI), 50% L-WRN conditioned media (ATCC, cat. CRL-3276), 1.25 mM N-Acetyl-L-cysteine (Sigma-Aldrich, cat. A9165), 10 mM nicotinamide (Sigma-Aldrich, cat. N0636), 1X B-27 supplement (Thermo Fisher Scientific, cat. 17504044), 1X N-2 supplement (Thermo Fisher Scientific, cat. […]", "note": "Values joined by “and” are separate entries in the source; they are usually repeats but may differ in a detail not shown here. Identical values can stand only once.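 Note: spheroids exposed to compounds for one week before readout.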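 Throughout, for viability, T/C: luminescence used as stand-in measure of viable cells; 100% = DMSO vehicle control viability.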", "data": [{"compound": "CC[C@@]1(O)C(=O)OCc2c1cc1n(c2=O)Cc2cc3c(CN(C)C)c(O)ccc3nc2-1", "values": [{"measurement": "viability, T/C", "setting": "compound 0.000316 µM", "result": "95.8% and 95.3% and 99.4%"}, {"measurement": "viability, T/C", "setting": "compound 0.001 µM", "result": "113% and 97% and 101%"}, {"measurement": "viability, T/C", "setting": "compound 0.00316 µM", "result": "103% and 108% and 98.3%"}, {"measurement": "viability, T/C", "setting": "compound 0.01 µM", "result": "90.7% and 108% and 86.8%"}, {"measurement": "viability, T/C", "setting": "compound 0.0316 µM", "result": "25.3% and 37.5% and 22.8%"}, {"measurement": "viability, T/C", "setting": "compound 0.1 µM", "result": "7.48% and 7.95% and 7.34%"}, {"measurement": "IC50", "setting": "curve of compound", "result": "20.5 nM and 25.3 nM and 19.4 nM"}]}, {"compound": "CCc1cc2c(N3CCc4c(cc(Cn5ccnc5)cc4-c4cn(C)nc4C(F)(F)F)C3=O)cc(C)nc2c(OC)n1", "values": [{"measurement": "viability, T/C", "setting": "compound 0.0316 µM", "result": "84.8% and 99.7% and 90.9%"}, {"measurement": "viability, T/C", "setting": "compound 0.1 µM", "result": "89.5% and 98.3% and 92.6%"}, {"measurement": "viability, T/C", "setting": "compound 0.316 µM", "result": "74.6% and 79% and 86.6%"}, {"measurement": "viability, T/C", "setting": "compound 1 µM", "result": "80.3% and 82.8% and 91.5%"}, {"measurement": "viability, T/C", "setting": "compound 3.16 µM", "result": "71.9% and 84% and 83.9%"}, {"measurement": "viability, T/C", "setting": "compound 10 µM", "result": "69% and 78.6% and 69.5%"}, {"measurement": "IC50", "setting": "curve of compound", "result": "> 10000", "unit": "nM"}]}, {"compound": "COc1ccc([C@@H](O)c2cc(-c3ncnc4cc(N5CCOCC5)ccc34)c(F)cc2Cl)nn1", "values": [{"measurement": "viability, T/C", "setting": "compound 0.0316 µM", "result": "95.9% and 109% and 85.5%"}, {"measurement": "viability, T/C", "setting": "compound 0.1 µM", "result": "113% and 97.3% and 88.6%"}, {"measurement": "viability, T/C", "setting": "compound 0.316 µM", "result": "95.8% and 98.6% and 91.6%"}, {"measurement": "viability, T/C", "setting": "compound 1 µM", "result": "95.5% and 92.4% and 92.3%"}, {"measurement": "viability, T/C", "setting": "compound 3.16 µM", "result": "86% and 89.3% and 87.6%"}, {"measurement": "viability, T/C", "setting": "compound 10 µM", "result": "40.4% and 53.2% and 40.9%"}, {"measurement": "IC50", "setting": "curve of compound", "result": "7850 nM and > 10000 nM and 7990 nM"}]}, {"compound": "COc1cccc2c1C(=O)c1c(O)c3c(c(O)c1C2=O)CC(O)(C(=O)CO)CC3OC1CC(N)C(O)C(C)O1", "note": "(stereo not drawn) + Cc1cccc(N(C)C(=O)C2C(O)CCN2c2nc(C)cc(C(F)(F)F)c2C#N)c1", "values": [{"measurement": "IC50", "setting": "curve of first compound, second compound 0.0316 µM", "result": "< 31.6", "unit": "nM"}, {"measurement": "IC50", "setting": "curve of first compound, second compound 0.1 µM", "result": "< 31.6", "unit": "nM"}, {"measurement": "IC50", "setting": "curve of first compound, second compound 0.316 µM", "result": "< 31.6", "unit": "nM"}, {"measurement": "IC50", "setting": "curve of first compound, second compound 1 µM", "result": "< 31.6", "unit": "nM"}, {"measurement": "IC50", "setting": "curve of first compound, second compound 3.16 µM", "result": "< 31.6", "unit": "nM"}, {"measurement": "IC50", "setting": "curve of first compound, second compound 10 µM", "result": "< 31.6", "unit": "nM"}, {"measurement": "viability, T/C", "setting": "second compound 0.0316 µM, first compound 0.0316 µM", "result": 37.8, "unit": "%"}, {"measurement": "viability, T/C", "setting": "second compound 0.0316 µM, first compound 0.1 µM", "result": 18.6, "unit": "%"}, {"measurement": "viability, T/C", "setting": "second compound 0.0316 µM, first compound 0.316 µM", "result": 4.26, "unit": "%"}, {"measurement": "viability, T/C", "setting": "second compound 0.0316 µM, first compound 1 µM", "result": 0.86, "unit": "%"}, {"measurement": "viability, T/C", "setting": "second compound 0.0316 µM, first compound 3.16 µM", "result": 1, "unit": "%"}, {"measurement": "viability, T/C", "setting": "second compound 0.0316 µM, first compound 10 µM", "result": 2.87, "unit": "%"}, {"measurement": "viability, T/C", "setting": "second compound 0.1 µM, first compound 0.0316 µM", "result": 38.3, "unit": "%"}, {"measurement": "viability, T/C", "setting": "second compound 0.1 µM, first compound 0.1 µM", "result": 11.9, "unit": "%"}, {"measurement": "viability, T/C", "setting": "second compound 0.1 µM, first compound 0.316 µM", "result": 5.5, "unit": "%"}, {"measurement": "viability, T/C", "setting": "second compound 0.1 µM, first compound 1 µM", "result": 0.82, "unit": "%"}, {"measurement": "viability, T/C", "setting": "second compound 0.1 µM, first compound 3.16 µM", "result": 0.95, "unit": "%"}, {"measurement": "viability, T/C", "setting": "second compound 0.1 µM, first compound 10 µM", "result": 3.55, "unit": "%"}, {"measurement": "viability, T/C", "setting": "second compound 0.316 µM, first compound 0.0316 µM", "result": 36.5, "unit": "%"}, {"measurement": "viability, T/C", "setting": "second compound 0.316 µM, first compound 0.1 µM", "result": 13.7, "unit": "%"}, {"measurement": "viability, T/C", "setting": "second compound 0.316 µM, first compound 0.316 µM", "result": 4.69, "unit": "%"}, {"measurement": "viability, T/C", "setting": "second compound 0.316 µM, first compound 1 µM", "result": 0.81, "unit": "%"}, {"measurement": "viability, T/C", "setting": "second compound 0.316 µM, first compound 3.16 µM", "result": 1.46, "unit": "%"}, {"measurement": "viability, T/C", "setting": "second compound 0.316 µM, first compound 10 µM", "result": 2.87, "unit": "%"}, {"measurement": "viability, T/C", "setting": "second compound 1 µM, first compound 0.0316 µM", "result": 42.5, "unit": "%"}, {"measurement": "viability, T/C", "setting": "second compound 1 µM, first compound 0.1 µM", "result": 8.66, "unit": "%"}, {"measurement": "viability, T/C", "setting": "second compound 1 µM, first compound 0.316 µM", "result": 4.35, "unit": "%"}, {"measurement": "viability, T/C", "setting": "second compound 1 µM, first compound 1 µM", "result": 0.62, "unit": "%"}, {"measurement": "viability, T/C", "setting": "second compound 1 µM, first compound 3.16 µM", "result": 1.26, "unit": "%"}, {"measurement": "viability, T/C", "setting": "second compound 1 µM, first compound 10 µM", "result": 2.94, "unit": "%"}, {"measurement": "viability, T/C", "setting": "second compound 3.16 µM, first compound 0.0316 µM", "result": 40.4, "unit": "%"}, {"measurement": "viability, T/C", "setting": "second compound 3.16 µM, first compound 0.1 µM", "result": 13.7, "unit": "%"}, {"measurement": "viability, T/C", "setting": "second compound 3.16 µM, first compound 0.316 µM", "result": 5.27, "unit": "%"}, {"measurement": "viability, T/C", "setting": "second compound 3.16 µM, first compound 1 µM", "result": 0.66, "unit": "%"}, {"measurement": "viability, T/C", "setting": "second compound 3.16 µM, first compound 3.16 µM", "result": 1.47, "unit": "%"}, {"measurement": "viability, T/C", "setting": "second compound 3.16 µM, first compound 10 µM", "result": 2.63, "unit": "%"}, {"measurement": "viability, T/C", "setting": "second compound 10 µM, first compound 0.0316 µM", "result": 24.7, "unit": "%"}, {"measurement": "viability, T/C", "setting": "second compound 10 µM, first compound 0.1 µM", "result": 9.06, "unit": "%"}, {"measurement": "viability, T/C", "setting": "second compound 10 µM, first compound 0.316 µM", "result": 7.17, "unit": "%"}, {"measurement": "viability, T/C", "setting": "second compound 10 µM, first compound 1 µM", "result": 0.84, "unit": "%"}, {"measurement": "viability, T/C", "setting": "second compound 10 µM, first compound 3.16 µM", "result": 3.16, "unit": "%"}, {"measurement": "viability, T/C", "setting": "second compound 10 µM, first compound 10 µM", "result": 3.87, "unit": "%"}]}]}
